Assay results published in PMC11590026, “Synthesis, enzyme inhibition, and docking studies of new schiff bases of disalicylic acid methylene-based derivatives as dual-target antibacterial agents” (Frontiers in Chemistry, 2024).
In brackets after ≈: the same amount, converted by molar mass. Like-named read-outs stand apart in the source and are kept apart here.

Columns and labels:
[1] = test system: S. aureus (ATCC 43300) (MRSA); assay: Antibacterial assay against multi-drug resistant strains (MIC/MBC); format: cell-based, Staphylococcus aureus; details: S. aureus ATCC 43300 (MRSA); for MBC: read-out: MBC
E. coli (ATCC BAA-196) = assay: as above; format: cell-based, Escherichia coli; details: for MBC: ATCCBAA196
[2] = test system: P. aeruginosa (ATCC BAA-2111); assay: as above; format: cell-based, Pseudomonas aeruginosa; details: for MBC: ATCCBAA2111
[3] = test system: MDRB (multi-drug resistant bacteria); assay: MIC/MBC against the MDRB panel as a whole
Text: Norfloxacin, a broad-spectrum antibiotic, worked as positive control.

B. subtilis = assay: MIC/MBC assay, twofold serial dilution; format: cell-based, Bacillus subtilis; details: for MIC: read-out: MIC
Protocol: (§1) The results of this in vitro assay test are consistent with the findings of the antimicrobial sensitivity test. […] It has lower antimicrobial activity than ciprofloxacin against all pathogens tested.
(§2) The MBC differs from the MIC. […]
(§3) 4.2.2. Minimum inhibitory concentration assay
(§4) In 96-well microtiter plates and […] of fresh bacterial culture of a single McFarland unit overnight, a double serial dilution of each compound […] in sterile standard saline were prepared to every single source well. Ciprofloxacin antibiotic (5 mg / mL - 1) and normal saline were included as standard reference in each assay. The plates were incubated at 37 0C overnight. As an indicator of bacterial growth, […] of p-iodonitrotetrazolium violet (INT) was added to each well and incubated at 37 0C for 30 […]
(§5) min. MIC values are recorded as the lowest concentration of the extract that completely inhibited bacterial growth that is clear well. The colorless tetrazolidium salt acts as an electron accepter and is reduced to a red colored formazan product by biological activity organisms. Where bacterial growth was inhibited, the solution in the well remained clear after incubation with INT. […]

S. aureus = assay: MIC/MBC assay, twofold serial dilution; format: cell-based, Staphylococcus aureus
Protocol: as §1, §2, §3, §4, §5

E. coli = assay: MIC/MBC assay, twofold serial dilution; format: cell-based, Escherichia coli; details: Escherichia coli; for MBC: read-out: MBC; for MIC: read-out: MIC
Protocol: as §1, §2, §3, §4, §5

P. aeruginosa = assay: MIC/MBC assay, twofold serial dilution; format: cell-based, Pseudomonas aeruginosa; details: for MIC: read-out: MIC
Protocol: as §1, §2, §3, §4, §5

[4] = Cell viability assay (MTT); format: cell-based; details: human, MCF-10A cells (normal mammary gland epithelial cell line), 4-day incubation
Protocol: The vitality of the investigated compounds was assessed using the MCF-10A cell line, which is a normal human mammary gland epithelial cell line. Following a 4-day incubation period on MCF-10A cells with a concentration of 50 µM for each compound being studied, the viability of the cells was assessed using the MTT test ([Hisham et al., 2022]; [Mahmoud et al., 2022]).
4.2.3. Cell Viability assay
MTT assay was carried out to study the effect of compounds on mammary epithelial cells (MCF-10A). The medium in which cells were propagated contained Dulbecco's modified Eagle's medium (DMEM)/ Ham's F-12 medium (1:1) supplemented with epidermal growth factor (20 ng/mL), hydrocortisone (500 ng/mL), insulin (10 μg/mL), 2 mM glutamine and 10% fetal calf serum. After every 2-3 days, the cells were passaged using trypsin ethylenediamine tetra acetic acid (EDTA). The cells were seeded at a density of 10^4 cells mL-1 in flat-bottomed culture plates containing 96 wells each. After 24 h, medium was removed from the plates and the compounds in (in 0.1% DMSO) were added (in 200 μL medium to yield a final concentration of 0.1% v/v) to the wells of plates. A single compound was designated with four wells followed by incubation of plates for 96h at 37°C. After incubation, medium was removed completely from the plates followed by addition of MTT (0.4 mg/mL in medium) to each well and subsequent incubation of plates for 3h. MTT (along with the medium) was removed and DMSO (150μL) was added to each well of the culture plates, followed by vortexing and subsequent measurement of absorbance (at 540 nm) using microplate reader. The data are shown as percentage inhibition of proliferation in comparison with controls

Gram-positive bacteria = assay: MBC assay, Gram-positive bacteria together; format: cell-based; details: Gram-positive bacteria (B. subtilis, S. aureus)
Text: The MBC differs from the MIC.

A. flavus = assay: Antifungal assay (MIC/MFC), twofold serial dilution; details: for MIC: A. flavus
C. albicans = assay: as above; details: Candida albicans
E. coli DNA gyrase = E. coli DNA gyrase (Escherichia coli, UniProt P0AES6); assay: E. coli DNA gyrase supercoiling inhibitory assay; format: biochemical
Protocol: The fluorescence was measured with a microplate reader (BioTek Synergy H4,
NaCl and 50 mM MgCl2) was added to terminate the enzymatic reaction. After
Initial screening was done at 100 or 10 μM concentration

DHFR E. Coli = DHFR E. Coli (Escherichia coli, UniProt P0ABQ4); assay: DHFR inhibitory assay; format: biochemical; details: read-out: IC50 DHFR E. Coli
[5] = Staphylococcus aureus, read-out: MIC
[6] = Escherichia coli, ATCCBAA196, read-out: MIC
[7] = Pseudomonas aeruginosa, ATCCBAA2111, read-out: MIC
[8] = Bacillus subtilis, read-out: MBC
[9] = Staphylococcus aureus, read-out: MBC
[10] = Pseudomonas aeruginosa, read-out: MBC

Sequence of DHFR E. Coli (P0ABQ4 whole entry): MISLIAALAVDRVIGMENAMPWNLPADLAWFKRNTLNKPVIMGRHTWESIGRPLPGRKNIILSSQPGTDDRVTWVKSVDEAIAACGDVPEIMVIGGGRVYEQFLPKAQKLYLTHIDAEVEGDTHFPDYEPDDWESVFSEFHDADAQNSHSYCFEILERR

MIC [1, 5] [µM]	MIC (E. coli (ATCC BAA-196); [6]) [µM]	MIC [2, 7] [µM]	MIC (B. subtilis; Bacillus subtilis) [µM]	MIC (S. aureus; [5]) [µM]	MIC (E. coli) [µM]	MIC (P. aeruginosa; Pseudomonas aeruginosa) [µM]	MIC (A. flavus) [µM]	MIC (A. flavus; Aspergillus flavus) [µM]	Compound	MBC ([1]; Staphylococcus aureus) [µM]	MBC (E. coli (ATCC BAA-196); Escherichia coli) [µM]	MBC ([2]; Pseudomonas aeruginosa) [µM]	MBC (B. subtilis; [8]) [µM]	MBC (S. aureus; [9]) [µM]	MBC (E. coli) [µM]	MBC (P. aeruginosa; [10]) [µM]	viability at 96 h, 50 µM [4] [%]	MBC (Gram-positive bacteria) [µM]	MFC (A. flavus; Aspergillus flavus) [µM]	MFC (C. albicans) [µM]	also measured
1.2 (≈ 0.383 µg/mL)	1.6 (≈ 0.511 µg/mL)	3.2 (≈ 1.02 µg/mL)							CCn1cc(C(=O)O)c(=O)c2cc(F)c(N3CCNCC3)cc21 [Norfloxacin, reference compound]	2.8 ± 0.1 (≈ 0.894 µg/mL)	3.5 ± 0.1 (≈ 1.12 µg/mL)	4.7 ± 0.2 (≈ 1.5 µg/mL)									MIC [1]: 1.20 ± 0.10 µM (≈ 0.383 µg/mL); MIC (E. coli (ATCC BAA-196)): 1.60 ± 0.10 µM (≈ 0.511 µg/mL); MIC [2]: 3.20 ± 0.10 µM (≈ 1.02 µg/mL); MBC ([3]; read-out: MBC values): 2.8 to 4.7 µM (≈ 0.894 to 1.5 µg/mL); MIC ([3]; read-out: MIC values): 1.2 to 3.2 µM (≈ 0.383 to 1.02 µg/mL)
4.7 ± 0.2 (≈ 3.77 µg/mL)	5.3 ± 0.2 (≈ 4.25 µg/mL)	6.85 ± 0.5 (≈ 5.49 µg/mL)	0.033 ± 0.002 (≈ 0.0264 µg/mL)	0.029 (≈ 0.0232 µg/mL)	0.066 ± 0.004 (≈ 0.0529 µg/mL)	0.065 ± 0.005 (≈ 0.0521 µg/mL)	18.20 ± 1 (≈ 14.6 µg/mL)	14.5 to 19.5 (≈ 11.6 to 15.6 µg/mL)	O=C1Nc2ccc(Br)cc2/C1=N/NC(=O)c1cc(Cc2cc(Cl)c(O)c(C(=O)N/N=C3\C(=O)Nc4ccc(Br)cc43)c2)cc(Cl)c1O [Compound 6c]	7.1 ± 0.5 (≈ 5.69 µg/mL)	8.2 ± 0.6 (≈ 6.57 µg/mL)	9.2 ± 0.6 (≈ 7.37 µg/mL)	0.051 ± 0.003 (≈ 0.0409 µg/mL)	0.045 ± 0.002 (≈ 0.0361 µg/mL)	0.088 ± 0.006 (≈ 0.0705 µg/mL)	0.085 ± 0.006 (≈ 0.0681 µg/mL)	91	0.028 to 0.058 (≈ 0.0224 to 0.0465 µg/mL)	35.9 ± 2 (≈ 28.8 µg/mL)	44.8 ± 3 (≈ 35.9 µg/mL)	MIC (S. aureus): 0.029 ± 0.002 µM (≈ 0.0232 µg/mL); MIC (C. albicans): 21.3 ± 1 µM (≈ 17.1 µg/mL)
5.9 ± 0.2 (≈ 4.15 µg/mL)	6.25 ± 0.25 (≈ 4.4 µg/mL)	7.15 ± 0.5 (≈ 5.03 µg/mL)	0.037 ± 0.002 (≈ 0.026 µg/mL)	0.035 ± 0.002 (≈ 0.0246 µg/mL)	0.069 ± 0.004 (≈ 0.0485 µg/mL)	0.069 ± 0.005 (≈ 0.0485 µg/mL)	19.50 ± 1 (≈ 13.7 µg/mL)	14.5 to 19.5 (≈ 10.2 to 13.7 µg/mL)	COc1ccc2c(c1)/C(=N/NC(=O)c1cc(Cc3cc(Cl)c(O)c(C(=O)N/N=C4\C(=O)Nc5ccc(OC)cc54)c3)cc(Cl)c1O)C(=O)N2 [Compound 6e]	7.8 ± 0.5 (≈ 5.49 µg/mL)	9.3 ± 0.6 (≈ 6.54 µg/mL)	10.4 ± 0.7 (≈ 7.32 µg/mL)	0.058 ± 0.003 (≈ 0.0408 µg/mL)	0.054 ± 0.003 (≈ 0.038 µg/mL)	0.095 ± 0.006 (≈ 0.0668 µg/mL)	0.097 ± 0.006 (≈ 0.0682 µg/mL)	92	0.028 to 0.058 (≈ 0.0197 to 0.0408 µg/mL)	40.2 ± 3 (≈ 28.3 µg/mL)	50.2 ± 3 (≈ 35.3 µg/mL)	MIC (C. albicans): 22.9 ± 1 µM (≈ 16.1 µg/mL)

Compound	MIC [1, 5] [µM]	MIC (E. coli (ATCC BAA-196); [6]) [µM]	MIC [2, 7] [µM]	MIC (B. subtilis; Bacillus subtilis) [µM]	MIC (S. aureus; [5]) [µM]	MIC (E. coli) [µM]	MIC (P. aeruginosa; Pseudomonas aeruginosa) [µM]	MIC (A. flavus) [µM]	MIC (A. flavus; Aspergillus flavus) [µM]	MBC ([1]; Staphylococcus aureus) [µM]	MBC (E. coli (ATCC BAA-196); Escherichia coli) [µM]	MBC ([2]; Pseudomonas aeruginosa) [µM]	MBC (B. subtilis; [8]) [µM]	MBC (S. aureus; [9]) [µM]	MBC (E. coli) [µM]	MBC (P. aeruginosa; [10]) [µM]	viability at 96 h, 50 µM [4] [%]	MBC (Gram-positive bacteria) [µM]	MFC (A. flavus; Aspergillus flavus) [µM]	MFC (C. albicans) [µM]	also measured
Cc1ccc2c(c1)/C(=N/NC(=O)c1cc(Cc3ccc(O)c(C(=O)N/N=C4\C(=O)Nc5ccc(C)cc54)c3)ccc1O)C(=O)N2 [Compound 6j]	3.2 ± 0.15 (≈ 1.93 µg/mL)	3.9 ± 0.15 (≈ 2.35 µg/mL)	5.6 ± 0.25 (≈ 3.37 µg/mL)	0.031 ± 0.002 (≈ 0.0187 µg/mL)	0.025 (≈ 0.0151 µg/mL)	0.062 ± 0.004 (≈ 0.0374 µg/mL)	0.061 ± 0.005 (≈ 0.0368 µg/mL)	16.90 ± 1 (≈ 10.2 µg/mL)	14.5 to 19.5 (≈ 8.74 to 11.8 µg/mL)	5.9 ± 0.25 (≈ 3.56 µg/mL)	6.1 ± 0.25 (≈ 3.68 µg/mL)	7.8 ± 0.3 (≈ 4.7 µg/mL)	0.047 (≈ 0.0283 µg/mL)	0.04 (≈ 0.0241 µg/mL)	0.081 ± 0.006 (≈ 0.0488 µg/mL)	0.08 (≈ 0.0482 µg/mL)	92	0.028 to 0.058 (≈ 0.0169 to 0.035 µg/mL)	33.9 ± 2 (≈ 20.4 µg/mL)	41.5 ± 3 (≈ 25 µg/mL)	MBC (B. subtilis): 0.047 ± 0.002 µM (≈ 0.0283 µg/mL); MBC (S. aureus): 0.04 ± 0.002 µM (≈ 0.0241 µg/mL); MIC (S. aureus): 0.025 ± 0.002 µM (≈ 0.0151 µg/mL); MBC (P. aeruginosa): 0.08 ± 0.006 µM (≈ 0.0482 µg/mL); IC50 (E. coli DNA gyrase): 0.117 ± 0.008 µM; IC50 (DHFR E. Coli): 5.1 ± 0.2 µM; MIC (C. albicans): 20.7 ± 1 µM (≈ 12.5 µg/mL)
